# Data published in US10420341B2, “Herbicidal phenylpyrimidines” (BASF SE, priority 2015, dated 2019).
# What was measured:
# ALOMY [1] = assay: greenhouse pre-emergence herbicidal test; type: in vivo, Alopercurus myosuroides; conditions: pre-emergence method, application rate 500 g/ha, scale from 0 to 100
# Description: The seeds of the test plants were sown separately for each species. For the pre-emergence treatment, the active ingredients, which had been suspended or emulsified in water, were applied directly after sowing by means of finely distributing nozzles. The containers were irrigated gently to promote germination and growth and subsequently covered with transparent plastic hoods until the plants had rooted. This cover caused uniform germination of the test plants, unless this had been impaired by the active ingredients. Depending on the species, the plants were kept at 10-25° C. or 20-35° C., respectively. The test period extended over 2 to 4 weeks. During this time, the plants were tended, and their response to the individual treatments was evaluated. Evaluation was carried out using a scale from 0 to 100. 100 means no emergence of the plants, or complete destruction of at least the aerial moieties, and 0 means no damage, or normal course of growth. […] The plants used in the greenhouse experiments were of the following species: [table]
# APESV = assay: greenhouse pre-emergence herbicidal test; type: in vivo, Apera spica-venti; conditions: pre-emergence method, application rate 500 g/ha, scale from 0 to 100
# In short: (§1)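 Damage was rated on a 0 to 100 scale, where 0 is normal growth and 100 is no emergence or full destruction of aerial parts, after 2 to 4 weeks. Treatment was applied pre-emergence, right after sowing, as an aqueous suspension or emulsion via fine nozzles.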
# ALOMY [2] = assay: greenhouse post-emergence herbicidal test; type: in vivo, Alopercurus myosuroides; conditions: post-emergence method, application rate 500 g/ha, scale from 0 to 100
# In short: (§2)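 Post-emergence; plants at 3–15 cm, treated with aqueous suspension/emulsion of compound. 10–25 °C or 20–35 °C per species, 2–4 wk. Score 0 (no damage) to 100 (aerial parts destroyed).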
# POLCO = assay: greenhouse post-emergence herbicidal test; type: in vivo, Polygonum convolvulus; conditions: post-emergence method, application rate 500 g/ha, scale from 0 to 100
# In short: as §2
# ECHCG [3] = assay: greenhouse pre-emergence herbicidal test; type: in vivo, Echinocloa crus-galli; conditions: pre-emergence method, application rate 500 g/ha, scale from 0 to 100
# In short: as §1
# AMARE = assay: greenhouse post-emergence herbicidal test; type: in vivo, Amaranthus retroflexus; conditions: post-emergence method, application rate 500 g/ha, scale from 0 to 100
# In short: as §2
# ECHCG [4] = assay: greenhouse post-emergence herbicidal test; type: in vivo, Echinocloa crus-galli; conditions: post-emergence method, application rate 500 g/ha, scale from 0 to 100
# In short: as §2
# AVEFA = assay: greenhouse post-emergence herbicidal test; type: in vivo, Avena fatua; conditions: post-emergence method, application rate 500 g/ha, scale from 0 to 100
# In short: as §2
Compound,herbicidal activity against ALOMY (ALOMY [1]),herbicidal activity against APESV (APESV),herbicidal activity against ALOMY (ALOMY [2]),herbicidal activity against POLCO (POLCO),herbicidal activity against ECHCG (ECHCG [3]),herbicidal activity against AMARE (AMARE),herbicidal activity against ECHCG (ECHCG [4]),herbicidal activity against AVEFA (AVEFA)
O=C(O)c1nc(C2CC2)ncc1-c1c(Cl)cc(F)cc1Cl [example 147],very good (a very good herbicidal activity is given at values of at least 85),very good (a very good herbicidal activity is given at values of at least 85),very good (a very good herbicidal activity is given at values of at least 85),very good (a very good herbicidal activity is given at values of at least 85),–,–,–,–
O=C(O)c1nc(C2CC2)ncc1-c1ccccc1Br [example 152],good (A good herbicidal activity is given at values of at least 70),very good (a very good herbicidal activity is given at values of at least 85),–,–,very good (a very good herbicidal activity is given at values of at least 85),good (A good herbicidal activity is given at values of at least 70),–,–
Cc1ccc(Cl)cc1-c1cnc(C2CC2)nc1C(=O)O [example 164],very good (a very good herbicidal activity is given at values of at least 85),very good (a very good herbicidal activity is given at values of at least 85),–,very good (a very good herbicidal activity is given at values of at least 85),very good (a very good herbicidal activity is given at values of at least 85),–,very good (a very good herbicidal activity is given at values of at least 85),–
O=C(O)c1nc(C2CC2)ncc1-c1ccccc1C(F)(F)F [example 176],very good (a very good herbicidal activity is given at values of at least 85),very good (a very good herbicidal activity is given at values of at least 85),–,very good (a very good herbicidal activity is given at values of at least 85),–,–,–,very good (a very good herbicidal activity is given at values of at least 85)
COC(=O)c1nc(C2CC2)ncc1-c1ccccc1F [example 190],very good (a very good herbicidal activity is given at values of at least 85),very good (a very good herbicidal activity is given at values of at least 85),–,good (A good herbicidal activity is given at values of at least 70),very good (a very good herbicidal activity is given at values of at least 85),–,–,–
COC(=O)c1nc(C2CC2)ncc1-c1ccccc1Cl [example 201],very good (a very good herbicidal activity is given at values of at least 85),very good (a very good herbicidal activity is given at values of at least 85),very good (a very good herbicidal activity is given at values of at least 85),very good (a very good herbicidal activity is given at values of at least 85),very good (a very good herbicidal activity is given at values of at least 85),–,–,–
COC(=O)c1nc(C2CC2)ncc1-c1cc(F)ccc1Cl [example 203],very good (a very good herbicidal activity is given at values of at least 85),very good (a very good herbicidal activity is given at values of at least 85),good (A good herbicidal activity is given at values of at least 70),–,very good (a very good herbicidal activity is given at values of at least 85),–,very good (a very good herbicidal activity is given at values of at least 85),–
COC(=O)c1nc(C2CC2)ncc1-c1cc(C)ccc1Cl [example 205],good (A good herbicidal activity is given at values of at least 70),very good (a very good herbicidal activity is given at values of at least 85),good (A good herbicidal activity is given at values of at least 70),–,very good (a very good herbicidal activity is given at values of at least 85),–,very good (a very good herbicidal activity is given at values of at least 85),–
COC(=O)c1nc(C2CC2)ncc1-c1ccccc1Br [example 213],very good (a very good herbicidal activity is given at values of at least 85),very good (a very good herbicidal activity is given at values of at least 85),good (A good herbicidal activity is given at values of at least 70),–,very good (a very good herbicidal activity is given at values of at least 85),–,good (A good herbicidal activity is given at values of at least 70),–
COC(=O)c1nc(C2CC2)ncc1-c1cc(F)ccc1C [example 226],very good (a very good herbicidal activity is given at values of at least 85),good (A good herbicidal activity is given at values of at least 70),very good (a very good herbicidal activity is given at values of at least 85),very good (a very good herbicidal activity is given at values of at least 85),very good (a very good herbicidal activity is given at values of at least 85),–,–,–
COC(=O)c1nc(C2CC2)ncc1-c1cc(Cl)ccc1C [example 227],very good (a very good herbicidal activity is given at values of at least 85),very good (a very good herbicidal activity is given at values of at least 85),very good (a very good herbicidal activity is given at values of at least 85),–,very good (a very good herbicidal activity is given at values of at least 85),–,very good (a very good herbicidal activity is given at values of at least 85),–
COC(=O)c1nc(C2CC2)ncc1-c1cc(C)c(F)cc1C [example 230],good (A good herbicidal activity is given at values of at least 70),very good (a very good herbicidal activity is given at values of at least 85),good (A good herbicidal activity is given at values of at least 70),–,very good (a very good herbicidal activity is given at values of at least 85),–,very good (a very good herbicidal activity is given at values of at least 85),–
COC(=O)C(C)(C)SC(=O)c1nc(C2CC2)ncc1-c1ccccc1Cl [example 283],very good (a very good herbicidal activity is given at values of at least 85),very good (a very good herbicidal activity is given at values of at least 85),–,very good (a very good herbicidal activity is given at values of at least 85),–,–,–,very good (a very good herbicidal activity is given at values of at least 85)
